Experimental data taken from patent publication US20240115704A1, “TREATMENT OF CANCER WITH NK CELLS AND A CD38-TARGETED ANTIBODY” (Artiva Biotherapeutics, Inc., priority 2021, published 2024).

Assays:
Daudi = assay: Cytotoxicity of steroid treated AB-101 cells against Daudi; format: cell-based; settings: 48 hours; particularly when combined with 500 IU/mL of IL-2; 5:1 E:T
K562 = assay: Cytotoxicity of steroid treated AB-101 cells against K562; format: cell-based; settings: 5:1 E:T
NCI-H929 = assay: Cytotoxicity of steroid treated AB-101 cells against NCI-H929; format: cell-based; settings: 48 hours; particularly when combined with 500 IU/mL of IL-2; 5:1 E:T
[1] = test system: K562, Daudi, RPMI-8226, and NCI-H929; assay: Impact of steroids on AB-101+daratumumab ADCC; settings: 48 hours steroid treatment; 5:1 E:T; with daratumumab
CD38− cell line K562 = assay: Daratumumab titration, cytotoxicity of AB-101 cells against K562; format: cell-based; settings: AB-101 at 5:1 E:T, 4 hours
Protocol: (§1) After 4 hours on co-culture, the samples were analyzed by flow cytometry.

[2] = test system: CD38+ multiple myeloma cell line MM.1S; assay: Daratumumab titration, ADCC by AB-101 cells against MM.1S; format: cell-based; settings: AB-101 at 5:1 E:T, 4 hours
Protocol: as §1

[3] = test system: Burkitt's lymphoma cell line Daudi; assay: Complement fixation assay (CDC), assay control tumor line; format: cell-based; settings: human complement serum; lowest concentration tested
Source text: Burkitt's lymphoma cell line Daudi was included as an assay control.

| Molecule | basal cytotoxicity of steroid treated AB-101 cells (Daudi) | basal cytotoxicity of steroid treated AB-101 cells (K562; 0.1, 1, 10 μM for 48 hours, all concentrations tested, with the exception of one cell lot) | cytotoxicity of steroid treated AB-101 cells with 500 IU/ml of IL-2 (K562; 500 IU/ml IL-2 during steroid treatment) | basal cytotoxicity of steroid treated AB-101 cells (NCI-H929) | ADCC potential of steroid treated AB-101 cells [1] | cytotoxicity of AB-101 cells, daratumumab vs IgG control (CD38− cell line K562) | ADCC compared to IgG1 control antibodies [2] | concentration of daratumumab at which lysis reached saturation [3] [µg/mL] |
| --- | --- | --- | --- | --- | --- | --- | --- | --- |
| C[C@@H]1C[C@H]2[C@@H]3CCC4=CC(=O)C=C[C@]4(C)[C@@]3(F)[C@@H](O)C[C@]2(C)[C@@]1(O)C(=O)CO [Dexamethasone, (8S,9R,10S,11S,13S,14S,16R,17R)-9-fluoro-11,17-dihydroxy-17-(2-hydroxyacetyl)-10,13,16-trimethyl-6,7,8,11,12,14,15,16-octahydrocyclopenta[a]phenanthren-3-one] | enhanced | reduced | restored cytotoxicity | enhanced | did not abolish | – | – | – |
| daratumumab: mAb that targets CD38, approved for multiple myeloma | – | – | – | – | – | no change in cytotoxicity | elicited ADCC | ≤ 0.41 |
